Where two headings read alike, the source gives them in different places.
Assays:
[1] = system: TNF-α; assay: In vivo LPS-induced TNF-α production, oral dosing; settings: mouse, LPS 1 mg/kg i.p.
Protocol: Mice (BALB/cJ females, Jackson Laboratories) or rats (Lewis males, Charles River) were fasted for 30 minutes prior to oral dosing with 5-10 mL/kg of test compound at 5-50 mg/kg. Thirty minutes after dosing, the animals were injected intraperitoneally with LPS at 1 mg/kg and returned to their cages for 1 hour. Animals were anesthetized by CO2, exsanguinated by cardiac puncture and whole blood collected (0.1-0.7 mL). The blood was allowed to clot and serum was transferred to a centrifuge tube. This sample was centrifuged, serum was collected, aliquoted and frozen at −80° C. Samples were tested by commercial ELISA's for TNF-α (Endogen for mouse TNF-α and Biosource for rat TNF-α).

[2] = system: TNF-α; assay: In vitro whole cell assay: LPS-stimulated TNF-α production in PBMC (ELISA); assay type: cell-based; settings: LPS-stimulated human PBMC
Protocol: In addition to the enzyme assay, many of the compounds of the invention were tested in an in vitro whole cell assay using peripheral blood mononuclear cells (“PBMC”) which were obtained from human blood as follows. Freshly obtained venous blood was anticoagulated with heparin, diluted with an equal volume of phosphate buffered saline (“PBS”) and placed in a sterile tube or other container. Aliquots (30 mL) of this mixture were transferred to centrifuge tubes which were underlaid with Ficoll-Hypaque (15 mL). The prepared tubes were centrifuged at 400×g without braking for 30 minutes at room temperature. Approximately ½ to ⅔ of the platelet layer above the mononuclear cell band was removed with a pipet. The majority of the mononuclear cell layer was carefully removed using a pipet and these PBMC's were diluted with PBS and spun at 600×g for 15 minutes. The resulting PBMC's were washed with another portion of PBS and spun at 400×g for 10 minutes at room temperature. The recovered pellets were diluted in low endotoxin RPMI/1% FCS culture medium and gave a cell concentration of 0.5-2.0×10^6 PBMC/ mL. A small volume of the suspension was removed for counting on a hemocytometer and the remaining preparation was centrifuged at 200×g for 15 minutes at room temperature. The recovered pelleted PBMC's were resuspended in RPMI/1% FCS to a concentration of 1.67×10^6/mL.
To run the assay, the PBMC suspension (180 μL) was transferred to duplicate wells of a 96-well flat-bottom microtiter plate and incubated for 1 hour at 37° C. A solution of test compound (10 μL: prepared at 20×the desired final concentration) was added to each well and the plate was incubated for 1 hour at 37° C. A solution (10 μL) of LPS in RPMI/1% FCS (200 ng/mL) was added and the wells were incubated overnight at 37° C. The supernatant (100 μL) was removed from each well and diluted with RPMI/1% FCS (400 μL). The samples were analyzed for TNF-α using a commercial ELISA kit (Genzyme).
Certain compounds of the invention are listed in Tables A and B. The compounds were tested for their ability to inhibit TNF-α in vitro. The data are listed as an IC50 or as the % inhibition at a given concentration.

[3] = target: p38 (Homo sapiens, UniProt Q16539); assay: In vitro enzyme assay: inhibition of p38 activity; assay type: biochemical
Chain of p38 (Q16539 whole entry): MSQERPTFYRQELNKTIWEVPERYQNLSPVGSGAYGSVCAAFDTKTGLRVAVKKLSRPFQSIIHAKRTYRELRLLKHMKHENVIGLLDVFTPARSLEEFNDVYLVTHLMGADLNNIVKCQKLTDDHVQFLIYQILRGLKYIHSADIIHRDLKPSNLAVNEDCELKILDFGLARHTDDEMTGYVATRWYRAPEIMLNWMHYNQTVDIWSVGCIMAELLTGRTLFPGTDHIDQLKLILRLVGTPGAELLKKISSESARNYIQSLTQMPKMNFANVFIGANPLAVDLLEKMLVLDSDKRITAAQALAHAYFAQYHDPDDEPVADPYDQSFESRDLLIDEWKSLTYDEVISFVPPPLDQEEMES
Protocol: Compounds of the invention were measured for their ability to inhibit the activity of p38 by the following in vitro assay.
A solution (38 μL) of purified recombinant p38 (where the amount of enzyme was determined empirically considering the linear range of the assay and the acceptable signal to noise ratio; 6×His-p38 expressed in E. coli), myelin basic protein substrate (also determined empirically), and a buffer of pH 7.5 (Hepes:25 mM, MgCl2:10 mM, MnCl2:10 mM) were added to 92 wells of a 96-well round bottom polypropylene plate. The remaining wells were used for control (“CTRL”) and background (“BKG”).
The CTRL was prepared with the enzyme, substrate buffer and 2% DMSO, and the BKG was prepared with substrate buffer and 2% DMSO. […]
The contents of each well were transferred to the wells of a 96-well filterplate (Millipore, MultiScreen-DP) and the filterplate was placed on a vacuum manifold, fitted with a waste collection tray. […] MicroScint-20 scintillant was added, the plates were sealed using Topseal-S sheets and counted in a Packard TopCount scintillation counter using a ^33P liquid program with color quench correction, where the output is in color quench-corrected cpm.
The % inhibition of the test compounds was calculated by the following formula: % inhibition=[1−(sample −BKG)/(CTRL−BKG)]×100.

[4] = Table B, read-out: IC50 (TNF-α in vitro)

In the case of Fc1ccc(-c2[nH]c3ccc4[nH]c(Cc5ccccc5)nc4c3c2-c2ccncc2)cc1 [Compound 1, 1,6-Dihydro-7-(4-fluorophenyl)-8-(4-pyridyl)-2-phenylmethyl-pyrrolo [3,2-e] benzimidazole], the “inhibition of TNF-α” value ([1]; 10 mg/kg) is reported as 74%, the “inhibition of TNF-α” value ([1]; 25 mg/kg) is reported as 91% and the IC50 ([2]; Table A, read-out: TNF-α IC50) is reported as 7 nM. For the same molecule, the inhibition at 20 µM [3] was 44%.
Fc1ccc(-c2[nH]c3ccc4nc(-c5ccccc5)[nH]c4c3c2-c2ccncc2)cc1 [Compound 2, 1,6-dihydro-7-(4-fluorophenyl)-8-(4-pyridyl)-2-phenyl-pyrrolo[3,2-e]benzimidazole] gave an IC50 ([2]; Table A, read-out: TNF-α IC50) of 20 nM.
For CCCCc1nc2ccc3[nH]c(-c4ccc(F)cc4)c(-c4ccncc4)c3c2[nH]1 [Compound 4, 1,6-dihydro-7-(4-fluorophenyl)-8-(4-pyridyl)-2-butyl-pyrrolo[3,2-e]benzimidazole], the IC50 ([2]; Table A, read-out: TNF-α IC50) was 45 nM.
For Fc1ccc(-c2[nH]c3ccc4nc(CCc5ccccc5)[nH]c4c3c2-c2ccncc2)cc1 [Compound 7, 1,6-dihydro-7-(4-fluorophenyl)-8-(4-pyridyl)-2-(2-phenylethyl)-pyrrolo[3,2-e]benzimidazole], the IC50 ([2]; Table A, read-out: TNF-α IC50) was 50 nM.
Molecule Fc1ccc(-c2c(-c3ccncc3)[nH]c3ccc4nc[nH]c4c23)cc1 [Compound 9, 1,6-dihydro-7-(4-pyridyl)-8-(4-fluorophenyl)-pyrrolo[3,2-e]benzimidazole] has an IC50 [2, 4] of 15 nM.
Fc1ccc(-c2c(-c3ccncc3)[nH]c3ccc4nc(Cc5ccccc5)[nH]c4c23)cc1 [Compound 10, 1,6-dihydro-7-(4-pyridyl)-8-(4-fluorophenyl)-2-phenylmethyl-pyrrolo[3,2-e]benzimidazole] was tested, and the IC50 [2, 4] was > 400 nM.
Molecule Fc1ccc(-c2c(-c3ccncc3)[nH]c3ccc4c(ncn4CCCc4ccccc4)c23)cc1 [Compound 11, 3,6-dihydro-8-(4-fluorophenyl)-3-(3-phenylpropyl)-7-(4-pyridyl)-pyrrolo[3,2-e]benzimidazole] has an inhibition at 0.4 µM ([2]; @ 400 nM, Table B, read-out: % inhibition of TNF-α at a given concentration) of 0%.
